Test results as given in paper PMC12289066, “Identification of glutathione transferase (GST P1) inhibitors via a high-throughput screening assay and implications as alternative treatment options for breast cancers” (PLOS One, 2025).
Read-outs that look alike come from different tables or passages of the source.

Experiments:
MDA-MB-231 cells = assay: MTT cytotoxicity assay, MDA-MB-231; type: cell-based, human; conditions: MTT, 72 h incubation, read-out: IC50 (average ± standard deviation) MDA-MB-231
Description: (§1) L929, MCF-7, and MDA-MB-231 cell lines were cultured in DMEM GlutaMAX media containing 10% heat-inactivated FBS and 1% (v/v) penicillin-streptomycin at 37°C and CO2 (5%). Cytotoxicity was determined using a 3-(4,5-dimethyl 2-thiazolyl)-2,5-diphenyl-2H-tetrazolium bromide (MTT) assay. 100 μL aliquots and approximately 50’000 cells/well were added to each well of flat-bottomed 96-well plates and incubated for 24 h in a humidified chamber at 37°C under saturated air with a 5% CO2 atmosphere. Stock solutions of 10 mM drug compounds were prepared in DMSO and were sequentially diluted with the cell culture buffer to give a final DMSO concentration of 0.5%. The solutions were added to the 96-well plates in 100 μL aliquots and 100 μL of buffer was added as a control to give a final drug compound concentration range of 0 − 100 μM. The plates were incubated for a further 72 h under the same conditions as before. MTT (10 μL, 5 mg/mL in Dulbecco’s phosphate-buffered saline) was added to each well and the plates were incubated for a further 3 h under the same conditions as before. The culture medium was aspirated from each well and the purple formazan crystals, formed by the mitochondrial dehydrogenase activity of vital cells, were dissolved in 100 μL DMSO. The absorbance of the resulting solutions was measured at 570 and 630 nm using a SpectraMax M5e multimode microplate reader and SoftMax Pro software, version 6.2.2. As the absorbance is directly proportional to the number of surviving cells, the percentage of surviving cells was calculated from the absorbance of wells relative to the control. The reported IC50 values are based on the mean from four independent experiments, each comprising three replicates per concentration.

L929 cells = assay: MTT cytotoxicity assay, L929; type: cell-based, mouse; conditions: MTT, 72 h incubation, read-out: IC50 (average ± standard deviation) L929
Description: as §1, with “Cytotoxicity” for “L929, MCF-7, and MDA-MB-231 cell lines were cultured in DMEM GlutaMAX media containing 10% heat-inactivated FBS and 1% (v/v) penicillin-streptomycin at 37°C and CO2 (5%). Cytotoxicity”, “Stock solutions of 10 mM drug compounds were prepared in DMSO and were sequentially diluted with the cell culture buffer to give a final DMSO concentration of 0.5%. The solutions were added to the 96-well plates in 100 μL aliquots and 100 μL of buffer was added as a control to give a final drug compound concentration range of 0 − 100 μM.” left out

GST P1-1 [1] = target: T1, GST P1-1 (Homo sapiens, UniProt P09211); assay: Determination of IC50 for GST P1-1 enzyme (dose-response / reconfirmation assay); type: biochemical
T1 construct: purchased Sigma-Aldrich
T1 sequence (P09211 2-210 limits assumed): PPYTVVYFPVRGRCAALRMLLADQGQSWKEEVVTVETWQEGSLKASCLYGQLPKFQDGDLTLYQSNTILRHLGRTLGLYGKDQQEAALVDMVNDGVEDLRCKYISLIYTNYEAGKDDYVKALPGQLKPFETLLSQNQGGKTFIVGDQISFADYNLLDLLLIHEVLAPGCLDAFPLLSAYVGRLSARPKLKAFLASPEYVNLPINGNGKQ
Description: (§2) Each drug compound was added to the respective well at a volume of 80 nL of 10 mM stock solution in DMSO, yielding a final compound concentration of 10 μM and a final DMSO concentration of 0.1%. Each plate’s first and last two columns were used as negative (no compound added – 80 nL per well of DMSO) and positive (80 nL of EA added with a final concentration of 50 μM) controls, respectively. The Gyger Certus Flex dispenser was set up using a freshly prepared 1 mM of GSH and 20 nM of GST P1-1, pH 7.4, in one syringe and 8 mM CDNB solution in pure ethanol in the other syringe. Into each well 80 μL of GST-GSH solution was dispensed and incubated at 25°C for 20 minutes before the reaction was initiated by the addition of 4 μL of CDNB solution. The plates were incubated for 2 h in the dark at 25°C and then the absorbance was of each well recorded on a BioTek Synergy NEO HTS multimode plate reader (Agilent®) at a wavelength of 340 nm.
The IC50 of the GST P1-1 enzyme was determined for the 80 drug compounds with the highest score in the GST P1-1 screening assay. The assay conditions were used for the screening assay and each drug compound was tested at 8 different concentrations (μM) starting at 30 µM final assay concentration with a half-log dilution and 2 replicates per concentration.

MCF-7 cells = assay: MTT cytotoxicity assay, MCF-7; type: cell-based, human; conditions: MTT, 72 h incubation, read-out: IC50 (average ± standard deviation) MCF-7
Description: as §1

GST P1-1 [2] = target: T1, GST P1-1; assay: High-throughput GST P1-1 inhibition assay (384-well screen, CDNB/GSH); type: biochemical; conditions: compound 10 μM; score 0 = negative control (DMSO), 1 = positive control (EA 50 μM); average of duplicate
Description: as §2
The z’factor was calculated for each plate according to Zhang et al.. The Z-factor is a dimensionless, simple statistical characteristic for each HTS assay. This provides a valuable tool for the comparison and assessment of the quality of assays, and can be utilized in assay optimization and validation. For each plate, the concentration of product was normalized by assigning a score of 0 (0%) to the negative control (average of maximal concentration of product measured in the presence of enzyme without any inhibitor) and a score of 1 (100%) was assigned to the positive control (average minimal concentration of product measured in the presence of enzyme with the reference inhibitor, i.e., EA). The experiment was performed in duplicate and the score for each drug compound was calculated as an average ± standard deviation. […] An internal laboratory information management system (LIMS) was used for basic data processing, management, visualization, and statistical hit validation.

[3] = Table 2, rounded values, read-out: IC50 GSTP1 enzymatic reaction
[4] = reconfirmation assay, Table S2, read-out: IC50 GSTP1

SMILES | IC50 (MDA-MB-231 cells; Homo sapiens, MDA-MB-231) | IC50 (L929 cells; Mus musculus, L929) | IC50 (GST P1-1 [1]; [3]) | Hill Slope (dose-response curve) (GST P1-1 [1]; reconfirmation assay) | IC50 (GST P1-1 [1]; [4]) | IC50 (MCF-7 cells; Homo sapiens, MCF7) | IC50 (MDA-MB-231 cells) | IC50 (L929 cells) | IC50 (MCF-7 cells) | Score (GST P1-1 [2])
Cc1cc(=O)n(-c2ccccc2)[nH]1 [5-Methyl-2-phenyl-1,2-dihydropyrazol-3-one] | > 100 µM | > 100 µM | 0.8 µM | 0.8 | 0.83 µM | > 100 µM |  |  |  | 
O=C1NC(=O)/C(=C/c2ccc(-c3ccc(F)cc3O)o2)S1 [AS252424] |  |  | 0.6 µM | 1.95 | 0.61 µM |  | 91 ± 3 µM | 24 ± 2 µM | 38 ± 2 µM | 0.907
C[C@@H]1Cc2c([nH]c3ccccc23)[C@@H](c2c(F)cc(/C=C/C(=O)O)cc2F)N1CC(C)(C)F [AZD9496] | 47 ± 5 µM | 36 ± 4 µM | 2.1 µM | 2.23 | 2.05 µM | 14 ± 1 µM |  |  |  | 0.806
CC(C)c1cc(C(C)C)c(CC(=O)NS(=O)(=O)Oc2c(C(C)C)cccc2C(C)C)c(C(C)C)c1 [Avasimibe] | 16 ± 1 µM | 13 ± 1 µM | 0.4 µM |  | 0.37 µM | 12 ± 1 µM |  |  |  | 0.835
O=C(O)c1ccc2cc(-c3ccc(O)c(C45CC6CC(CC(C6)C4)C5)c3)ccc2c1 [CD437] |  |  | 0.3 µM | 11.6 | 0.32 µM |  | 0.74 ± 0.07 µM | 0.24 ± 0.03 µM | 0.51 ± 0.05 µM | 0.939
CCCCCCCCCCCC1=C(O)C(=O)C=C(O)C1=O [Embelin] | 12 ± 1 µM | 14 ± 1 µM | 0.6 µM | 1.46 | 0.64 µM | 11 ± 1 µM |  |  |  | 0.935
C=C(CC)C(=O)c1ccc(OCC(=O)O)c(Cl)c1Cl [Ethacrynic acid, EA, Ethacrynic acid] | 14 ± 1 µM | > 100 µM |  |  |  | 13 ± 1 µM |  |  |  | 
Cl.O=C(O)Cc1cccc(OCCCN(Cc2cccc(C(F)(F)F)c2Cl)CC(c2ccccc2)c2ccccc2)c1 [GW3965 (hydrochloride)] |  |  | 0.4 µM | 2.48 | 0.43 µM |  | 54 ± 1 µM | 24 ± 2 µM | 25 ± 1 µM | 1.027
Oc1c(Cl)cc(Cl)c(Cl)c1Cc1c(O)c(Cl)cc(Cl)c1Cl [Hexachlorophene] | 9 ± 1 µM | 11 ± 1 µM | 0.4 µM | 2.2 | 0.42 µM | 14 ± 1 µM |  |  |  | 1.077
Cc1cc(O)c2c(=O)c3c(O)cc(O)c4c5c(O)cc(O)c6c(=O)c7c(O)cc(C)c8c1c2c(c34)c(c78)c65 [Hypericin] | 26 ± 3 µM | 19 ± 1 µM | 0.1 µM | 11.6 |  | 8 ± 1 µM |  |  |  | 0.774
O=C(O)[C@]1(Cc2cccc(Nc3nccs3)n2)CC[C@@H](Oc2cccc(Cl)c2F)CC1 [MK-5108] | > 100 µM | 2.2 ± 0.5 µM | 3.2 µM | 13.6 |  | 3.4 ± 0.8 µM |  |  |  | 0.933
CC(C)(C)C(=O)CN1C(=O)[C@H](NC(=O)Nc2cccc(C(=O)O)c2)CN(C2CCCCC2)c2ccccc21 [Nastorazepide] |  |  | 3.3 µM | 10.6 |  |  | > 100 µM | > 100 µM | > 100 µM | 0.958
O=C(O)c1ccccc1Nc1ccc(CCc2ccc(Cl)c(Cl)c2)cc1 [PD-118057] |  |  | 0.3 µM | 1.8 | 0.33 µM |  | > 100 µM | > 100 µM | 41 ± 4 µM | 0.858
O=C(O)c1ccc(S(=O)(=O)N(Cc2ccc(OC(F)(F)F)cc2)c2ncc(C(F)(F)F)cc2Cl)cc1 [RQ-00203078] |  |  | 3.1 µM | 1.6 |  |  | 51 ± 6 µM | 42 ± 6 µM | 17 ± 2 µM | 0.697
O=C1CC(=O)c2c(Cl)c(Cl)c(Cl)c(Cl)c21 [TCID] |  |  | 0.9 µM | 1.16 |  |  | > 100 µM | > 100 µM | > 100 µM | 1.094
N#Cc1c(-c2ccccc2)cc(-c2cc(Br)ccc2O)[nH]c1=O [TCS PIM-1 1] |  |  | 2.2 µM | 2.5 | 2.15 µM |  | > 100 µM | 36 ± 3 µM | 74 ± 4 µM | 0.813
C=CC(=O)c1ccc2ccccc2c1 [ZM 449829] |  |  | 1.4 µM | 1.3 |  |  | 10.3 ± 0.2 µM | 8.1 ± 0.4 µM | 6.8 ± 0.2 µM | 
